# Laboratory results published in BindingDB's records for doi:10.1016/j.ejmech.2020.112655 (University of Michigan, 2020).
# Bridge positions count the residues as written; N and C are the ends. Peptide text beside a SMILES is read from it.
# Molecular target: Eukaryotic translation initiation factor 4E (Homo sapiens, UniProt P06730)
# Assay: Binding affinity to recombinant human 10His-tagged eIF4E expressed in Escherichia coli BL21 (DE3) cells assessed as dissociation constant by surface plasmon resonance analysis
# Chain of Eukaryotic translation initiation factor 4E (P06730 whole entry): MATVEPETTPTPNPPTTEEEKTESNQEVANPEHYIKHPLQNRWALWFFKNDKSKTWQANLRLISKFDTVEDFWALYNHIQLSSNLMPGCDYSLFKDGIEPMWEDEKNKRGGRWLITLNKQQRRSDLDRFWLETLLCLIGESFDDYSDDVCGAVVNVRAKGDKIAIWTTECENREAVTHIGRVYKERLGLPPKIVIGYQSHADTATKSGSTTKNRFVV
row,koff [s⁻¹],SMILES
1,0.0069,CC[C@H](C)[C@H](NC(=O)[C@H](CCCNC(=N)N)NC(C)=O)C(=O)N[C@H](C(=O)N[C@@H](Cc1ccc(O)cc1)C(=O)N[C@@H](CC(=O)O)C(=O)N[C@@H](CCCNC(=N)N)C(=O)N[C@H]1CCC(=O)NCCCC[C@@H](C(=O)N[C@@H](CS)C(=O)N[C@@H](CCCNC(=N)N)C(N)=O)NC(=O)[C@H](CCSC)NC(=O)[C@H](CC(C)C)NC(=O)[C@H](Cc2ccccc2)NC1=O)[C@@H](C)CC (Ac-RIIYDREFLMKCR-NH2; lactam 7-11)
2,0.0042,CC[C@H](C)[C@H](NC(=O)[C@H](CCCNC(=N)N)NC(C)=O)C(=O)N[C@H](C(=O)N[C@@H](Cc1ccc(O)cc1)C(=O)N[C@@H](CC(=O)O)C(=O)N[C@@H](CCCNC(=N)N)C(=O)N[C@H]1CCCCNC(=O)CC[C@@H](C(=O)N[C@@H](CS)C(=O)N[C@@H](CCCNC(=N)N)C(N)=O)NC(=O)[C@H](CCSC)NC(=O)[C@H](CC(C)C)NC(=O)[C@H](Cc2ccccc2)NC1=O)[C@@H](C)CC (Ac-RIIYDRKFLMECR-NH2; lactam 7-11)
